Experimental data from US6821981B2, “Azaheterocyclylmethyl derivatives of 2,3-dihydro-1,4-dioxino[2,3-f]-quinoline as 5-HT1A antagonists” (Wyeth, priority 2001, dated 2004).
Where a name gives a salt, the structure may show the parent alone. Read-outs that look alike come from different tables or passages of the source.

Tests used:
human 5-HT1A receptors = biological target: T1, human 5-HT1A receptors (Homo sapiens, UniProt P08908); assay: [3H] 8-OH-DPAT displacement from 5-HT1A receptor; format: binding
T1 construct: expressed in transfected cells; host or cells: CHO cells
T1 sequence (P08908 1-422): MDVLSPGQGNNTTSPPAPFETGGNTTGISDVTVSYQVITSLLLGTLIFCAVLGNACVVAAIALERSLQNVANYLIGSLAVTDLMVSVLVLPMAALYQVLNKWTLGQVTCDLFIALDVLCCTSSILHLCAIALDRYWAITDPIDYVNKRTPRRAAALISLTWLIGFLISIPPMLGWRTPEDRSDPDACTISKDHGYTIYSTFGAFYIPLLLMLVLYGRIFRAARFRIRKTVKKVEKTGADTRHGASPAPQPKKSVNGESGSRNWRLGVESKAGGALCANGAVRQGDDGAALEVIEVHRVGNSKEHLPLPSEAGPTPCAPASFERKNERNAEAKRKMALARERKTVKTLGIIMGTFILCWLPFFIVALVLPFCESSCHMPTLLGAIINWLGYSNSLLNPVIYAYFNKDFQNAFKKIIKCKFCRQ
From the text: High affinity for the serotonin 5-HT1A receptor was established by testing the claimed compound's ability to displace [^3H] 8-OH-DPAT (dipropylaminotetralin) from the 5-HT1A serotonin receptor following a modification of the procedure of Hall et al., J. Neurochem. 44, 1685 (1985) which utilizes CHO cells stably transfected with human 5-HT1A receptors.

[1] = biological target: T2, cloned human 5-HT1A receptors (Homo sapiens, UniProt P08908); assay: 35S-GTPγS binding assay, antagonist activity versus 8-OH-DPAT; format: biochemical; conditions: for 5-HT1A Function Imax (maximum inhibitory effect): value in parentheses after IC50
T2 construct: expressed in transfected cells
T2 sequence (P08908 1-422): T1 sequence (P08908 1-422)
Method: Antagonist activity at 5-HT1A receptors was established by using a ^35S-GTPγS binding assay similar to that used by Lazareno and Birdsall (Br. J. Pharmacol. 109: 1120, 1993), in which the test compound's ability to affect the binding of ^35S-GTPγS to membranes containing cloned human 5-HT1A receptors was determined. Agonists produce an increase in binding whereas antagonists produce no increase but rather reverse the effects of the standard agonist 8-OH-DPAT. The test compound's maximum inhibitory effect is represented as the Imax, while its potency is defined by the IC50.

[2] = CHO cells stably transfected with human 5-HT1A receptors, [3H] 8-OH-DPAT, read-out: 5-HT1A Receptor Affinity KI
[3] = reversal of the effects of the standard agonist 8-OH-DPAT on 35S-GTPγS binding, read-out: 5-HT1A Function IC50

SMILES	melting point [°C]	Ki (human 5-HT1A receptors; [2]) [nM]	further results
Cc1ccc2c3c(ccc2n1)OCC(CN1CCC2(CC1)C(=O)NCN2c1ccccc1)O3 (stereo not shown) (as salt: fumarate) (hydrate or solvate) [Example 2, 8-{[8-Methyl-2,3-dihydro[1,4]dioxino[2,3-f]quinolin-2-yl]methyl}-1-phenyl-1,3,8-triazaspiro[4.5]decan-4-one]	199 to 201	–	–
Cc1ccc2c3c(ccc2n1)OC[C@H](CN1CCC(n2c(=O)[nH]c4ccccc42)CC1)O3 (as salt: fumarate) (hydrate or solvate) [Example 3, 1-(1-{[8-Methyl-2,3-dihydro[1,4]dixino[2,3-f]quinlin-2-yl]methyl}piperidin-4-yl)-1,3-dihydro-2H-benzimidazol-2-one]	194 to 196	–	–
Cc1ccc2c3c(ccc2n1)OCC(CN1CCC(C(=O)c2ccc(F)cc2)CC1)O3 (stereo not shown) (as salt: fumarate) (hydrate or solvate) [Example 5, (4-Fluorophenyl)(1-{[8-methyl-2,3-dihydro[1,4]dioxino[2,3-f]quinolin-2-yl]methyl}-4-piperidinyl)methanone]	206 to 207	–	–
Cc1ccc2c3c(ccc2n1)OCC(CN1CCC(O)(c2cccc(C(F)(F)F)c2)CC1)O3 (stereo not shown) (as salt: fumarate) (hydrate or solvate) [Example 6, 1-{[8-Methyl-2,3-dihydro[1,4]dioxino[2,3-f]quinolin-2-yl]methyl}-4-[3-(trifluoromethyl)phenyl]-4-piperidinol]	133 to 135	–	–
Cc1ccc2c3c(ccc2n1)OCC(CN1CC=C(c2ccccc2)CC1)O3 (stereo not shown) (as salt: fumarate) (hydrate or solvate) [Example 8, 8-Methyl-2-{[4-phenyl-3,6-dihydro-1(2H)-pyridinyl]methyl}-2,3-dihydro[1,4]dioxino[2,3-f]quinoline]	185 to 188	–	–
CCc1ccc2c3c(ccc2n1)OCC(CN1CCC2(CC1)C(=O)NCN2c1ccccc1)O3 (stereo not shown) (as salt: fumarate) (hydrate or solvate) [Example 9, 8-{[8-Ethyl-2,3-dihydro[1,4]dioxino[2,3-f]quinolin-2-yl]methyl}-1-phenyl-1,3,8-triazaspiro[4.5]decan-4-one]	207 to 209	–	–
O=C1NCN(c2ccccc2)C12CCN(CC1COc3ccc4ncccc4c3O1)CC2 (stereo not shown) (as salt: fumarate) [Example 1, 8-[2,3-Dihydro[1,4]dioxino[2,3-f]quinolin-2-ylmethyl]-1-phenyl-1,3,8-triazaspiro[4.5]decan-4-one]	170	–	–
Cc1ccc2c3c(ccc2n1)OCC(CN1CCCCC1)O3 (stereo not shown) (as salt: hydrochloride) (hydrate or solvate) [Example 4, 8-Methyl-2-(piperidin-1-ylmethyl)-2,3-dihydro[1,4]dioxino[2,3-f]quinoline]	278 to 280	–	–
Cc1ccc2c3c(ccc2n1)OCC(CN1CCC(C#N)(c2ccccc2)CC1)O3 (stereo not shown) (as salt: salt) [Example 7, 1-{[8-Methyl-2,3-dihydro[1,4]dioxino[2,3-f]quinolin-2-yl]methyl}-4-phenyl-4-piperidinecarbonitrile]	185 to 187	–	–
O=C1NCN(c2ccccc2)C12CCN(CC1COc3ccc4ncccc4c3O1)CC2 (stereo not shown) [Example 1, 8-[2,3-Dihydro[1,4]dioxino[2,3-f]quinolin-2-ylmethyl]-1-phenyl-1,3,8-triazaspiro[4.5]decan-4-one]	–	1.44	IC50 [1, 3]: 55 nM; 5-HT1A Function Imax (maximum inhibitory effect) [1]: 100
Cc1ccc2c3c(ccc2n1)OCC(CN1CCC2(CC1)C(=O)NCN2c1ccccc1)O3 (stereo not shown) [Example 2, 8-{[8-Methyl-2,3-dihydro[1,4]dioxino[2,3-f]quinolin-2-yl]methyl}-1-phenyl-1,3,8-triazaspiro[4.5]decan-4-one]	–	1.79	IC50 [1, 3]: 64 nM; 5-HT1A Function Imax (maximum inhibitory effect) [1]: 100
Cc1ccc2c3c(ccc2n1)OC[C@H](CN1CCC(n2c(=O)[nH]c4ccccc42)CC1)O3 [Example 3, 1-(1-{[8-Methyl-2,3-dihydro[1,4]dixino[2,3-f]quinlin-2-yl]methyl}piperidin-4-yl)-1,3-dihydro-2H-benzimidazol-2-one]	–	3.08	IC50 [1, 3]: 66 nM; 5-HT1A Function Imax (maximum inhibitory effect) [1]: 85.0
Cc1ccc2c3c(ccc2n1)OCC(CN1CCCCC1)O3 (stereo not shown) [Example 4, 8-Methyl-2-(piperidin-1-ylmethyl)-2,3-dihydro[1,4]dioxino[2,3-f]quinoline]	–	51	IC50 [1, 3]: 483 nM; 5-HT1A Function Imax (maximum inhibitory effect) [1]: 100
Cc1ccc2c3c(ccc2n1)OCC(CN1CCC(C(=O)c2ccc(F)cc2)CC1)O3 (stereo not shown) [Example 5, (4-Fluorophenyl)(1-{[8-methyl-2,3-dihydro[1,4]dioxino[2,3-f]quinolin-2-yl]methyl}-4-piperidinyl)methanone]	–	18.5	–
Cc1ccc2c3c(ccc2n1)OCC(CN1CCC(O)(c2cccc(C(F)(F)F)c2)CC1)O3 (stereo not shown) [Example 6, 1-{[8-Methyl-2,3-dihydro[1,4]dioxino[2,3-f]quinolin-2-yl]methyl}-4-[3-(trifluoromethyl)phenyl]-4-piperidinol]	–	6.94	–
Cc1ccc2c3c(ccc2n1)OCC(CN1CCC(C#N)(c2ccccc2)CC1)O3 (stereo not shown) [Example 7, 1-{[8-Methyl-2,3-dihydro[1,4]dioxino[2,3-f]quinolin-2-yl]methyl}-4-phenyl-4-piperidinecarbonitrile]	–	–	Ki (human 5-HT1A receptors): 76.1 nM; IC50 [1]: 445 nM; 5-HT1A Function Imax (maximum inhibitory effect) [1]: 50
Cc1ccc2c3c(ccc2n1)OCC(CN1CC=C(c2ccccc2)CC1)O3 (stereo not shown) [Example 8, 8-Methyl-2-{[4-phenyl-3,6-dihydro-1(2H)-pyridinyl]methyl}-2,3-dihydro[1,4]dioxino[2,3-f]quinoline]	–	7.91	–
CCc1ccc2c3c(ccc2n1)OCC(CN1CCC2(CC1)C(=O)NCN2c1ccccc1)O3 (stereo not shown) [Example 9, 8-{[8-Ethyl-2,3-dihydro[1,4]dioxino[2,3-f]quinolin-2-yl]methyl}-1-phenyl-1,3,8-triazaspiro[4.5]decan-4-one]	–	2.79	–
